IC50 data for 25 compounds are collected here from US4725597A, “Bis(piperazinyl or homopiperazinyl)alkanes” (Boehringer Ingelheim Ltd., priority 1984, dated 1988).

Type in all cases: cell-based
Assay [1] relates to rat peritoneal mast cells. As to the kind of experiment: Inhibition of histamine release from rat peritoneal mast cells, Procedure B. The conditions noted are these: Mast cell, 1 h, sheep anti-rat IgE or ovalbumin, 37° C., 60 minutes, (d) No response detected at highest dose indicated, read-out: In Vitro Inhibition of Histamine Release IC50, Procedure B. Here is the method:
B. Procedure for Determining Inhibition of Histamine Release from Rat Peritoneal Mast Cells 1. Harvest of Peritoneal Mast Cells: After the rats are sacrificed with ether, 20 ml of Minimum Essential Medium (MEM) containing 20 units/ml heparin is injected into the peritoneum. The abdomen is massaged for one minute and the lavage fluid collected. The peritoneal cells are centrifuged at 1800 rpm for 8 minutes in cold. After two washes with Tris A buffer, the cells are resuspended in Tris ACM buffer at 2-4×10^6 cells/ml. 2. Reaction Mixture: The reaction is carried out in 12×75 mm plastic tubes at a total volume of 1.25 ml. The reaction mixture includes 0.5 ml (10-1000 μg) sheep anti-rat IgE or ovalbumin, 0.2 ml of the test compound in water at concentrations ranging from 10-1000 μM, […] phosphatidylserine solution (20-60 μg to each tube), and 0.5 ml of cell suspension. The reaction mixture is incubated in a 37° C. shaking water bath for 60 minutes. Upon completion of the reaction, the tubes are centrifuged and the supernatants collected. The protein is removed from the supernatants by precipitation with 0.2 ml of 8% perchloric acid. 3. Histamine Assay: Histamine release is measured by the automated fluorometric method of Siraganian, supra. The concentration which causes a 50% inhibition (IC50) of histamine release is computed as in Part A.

Assay [2] relates to guinea pig basophils. As to the kind of experiment: Inhibition of histamine release from guinea pig basophils, Procedure C. The note with it: Cavia porcellus, 1 h, ovalbumin-sensitized, 37° C., 60 minutes, read-out: In Vitro Inhibition of Histamine Release IC50, Procedure C. The protocol:
C. Procedure for Determining Inhibition of Histamine Release from Guinea Pig Basophils 1. In Vivo Sensitization: Male Hartley guinea pigs (200-300 gms) are immunized on day 0 with two 0.05 ml intradermal injections of 200 μg ovalbumin. Sensitized basophils are available between days 13-25 post-sensitization. This mode of sensitization favors IgE response. 2. Separation of Leukocytes: The method of Lett-Brown et al., Int. Arch. Allergy, Appl. Immun. 64, 241 (1981) is used. Animals are anesthetized with ether and are bled via cardiac puncture with plastic syringes containing sufficient EDTA to provide a final concentration of 10 mM. One part of 3% gelatin in saline at 37° C. is mixed with two parts of blood in a 16×150 mm tube. The cells are allowed to sediment at a 30° angle for 45 minutes in a 37° C. water bath. The leukocyte-rich plasma is collected and centrifuged at 150×g for 30 minutes at room temperature. The pelleted cells are washed in Hepes-buffered saline (HG) containing 4 mM EDTA and resuspended in Hepes-buffered saline containing Mg^++ and Ca^++ (HGCM) at 4-5×10^6 cells/ml. 3. Reaction Mixture: The reaction is carried out in 12×75 mm plastic tubes and a total volume of 1.2 ml which includes 0.5 ml of antigen, 0.2 ml of drug solution at concentrations ranging from 10-1000 μM and 0.5 ml of prewashed cell suspension. The reaction mixture is incubated in a 37° C. shaking water bath for 60 minutes. Upon completion of the reaction, the tubes are centrifuged and the supernatants collected. The protein is removed from the supernatants by precipitation with 0.2 ml of 8% perchloric acid. 4. Histamine Assay: Histamine release is measured by the automated fluorometric method of Siraganian, supra. The concentration which causes a 50 percent inhibition of Histamine release is computed as in Part A.

Assay [3] has as its system human leukocytes (basophils). As to the kind of experiment: Inhibition of histamine release from human leukocytes (basophils), Procedure A. The note with it: Leukocyte, 1 h, rabbit anti-human IgE, 37° C., 60 minutes, (d) No response detected at highest dose indicated, read-out: In Vitro Inhibition of Histamine Release IC50, Procedure A. The protocol:
A. Procedure for Determining Inhibition of Histamine Release from Human Leukocytes (Basophils) 1. Separation of Leukocytes: A modification of the method of L. Lichtenstein and A. Osler, J. Exp. Med. 120, 507 (1964) is used. Heparinized human blood (80-100 ml) is mixed with 20 ml of saline (0.2%) containing 0.6 gm of dextrose and 1.2 gm dextran in propylene centrifuge tubes. The mixture is kept at ambient temperature for 60-90 minutes to allow the separation of erythrocytes from the platelet-leukocyte-rich supernate. The supernate is removed and centrifuged for 8 minutes at 110×g in cold. The leukocyte pellet is washed twice with Tris buffer and finally suspended in 150-180 ml Tris-ACM buffer at 1-2×10^6 cells/ml. 2. Reaction Mixture: The reaction is carried out in 12×75 mm plastic tubes at a total volume of […]. The reaction medium includes 0.05 ml rabbit anti-human IgE (the antigen), 0.2 ml of the test compound in water at concentrations ranging from 10-100 μM, and 0.1 ml of the leukocyte suspension. The reaction mixture is incubated in a 37° C. shaking water bath for 60 minutes. Upon completion of the reaction, the tubes are centrifuged and the supernatants collected. The protein is removed from the supernatants by precipitation with 0.2 ml of 8% perchloric acid. 3. Histamine Assay: Histamine release is measured by the automated fluorometric method of W. Siraganian and W. Hook in Chapter 102 of the Manual of Clinical Immunology, 2nd Edition, edited by R. Rose and H. Friedman, published by the American Society for Microbiology, Washington, D.C. 1980. Percent inhibition is calculated as follows: [formula] The concentration which causes a 50 percent inhibition (IC50) of histamine release is interpolated from a plot of percent inhibition versus logarithm of drug concentration.

pIC50: −log10 of the molar value. Counter-ions that a name gives are not always drawn. A value given as a limit tells only on which side of the number the result lay.

Take `Clc1ccc(CN2CCN(CCCN3CCN(Cc4ccc(Cl)cc4)CC3)CC2)cc1` [Example 1, 1,3-Bis[4-(4-chlorobenzyl)-1-piperazinyl]propane tetrahydrochloride]: the pIC50 in assay [1] was 5.70; in assay [2] it was 4.46; in assay [3] it was 4.96.

For `OC(CN1CCN(Cc2ccc(Cl)cc2)CC1)CN1CCN(Cc2ccc(Cl)cc2)CC1` [Example 2, 1,3-Bis[4-(4-chlorobenzyl)-1-piperazinyl]-2-hydroxypropane], the pIC50 in assay [1] was 4.10; in assay [2], 4.64; in assay [3] it was 4.92.

Regarding `Clc1ccc(CN2CCN(CCCCN3CCN(Cc4ccc(Cl)cc4)CC3)CC2)cc1` [Example 3, 1,4-Bis[4-(4-chlorobenzyl)-1-piperazinyl]butane hemihydrate], in assay [3], the pIC50 is 4.62.

As for `c1ccc(CN2CCN(CCCN3CCN(Cc4ccccc4)CC3)CC2)cc1` [Example 4, 1,3-Bis(4-benzyl-1-piperazinyl)propane tetrahydrochloride], the pIC50 in assay [3] is 4.28.

Turning to `Fc1ccc(CN2CCN(CCCN3CCN(Cc4ccc(F)cc4)CC3)CC2)cc1` [Example 5, 1,3-Bis[4-(4-fluorobenzyl)-1-piperazinyl]propane tetrahydrochloride], the pIC50 in assay [2] was 3.12; in assay [3], 4.35.

`O=C(CCN1CCN(Cc2ccc(Cl)cc2)CC1)N1CCN(Cc2ccc(Cl)cc2)CC1` [Example 6, 1,3-Bis[4-(4-chloro-benzyl)-1-piperazinyl]-1-oxo-propane trihydrochloride]: the pIC50 in assay [3] is 4.92.

With `CC(CCN1CCN(Cc2ccc(Cl)cc2)CC1)N1CCN(Cc2ccc(Cl)cc2)CC1` (stereo not shown) [Example 7, 1,3-Bis[4-(4-chlorobenzyl)-1-piperazinyl]-1-methylpropane tetrahydrochloride hemihydrate], the pIC50 in assay [3] was 5.40.

`Clc1ccc(C(c2ccccc2)N2CCN(CCCN3CCN(C(c4ccccc4)c4ccc(Cl)cc4)CC3)CC2)cc1` (stereo not shown) [Example 8, 1,3-Bis[4-(4-chlorobenzhydryl)-1-piperazinyl]-propane dihydrochloride dihydrate]: the pIC50 in assay [1] was < 4.00; in assay [3], < 3.00.

Turning to `O=C(CN1CCN(CCCN2CCN(Cc3ccc(Cl)cc3)CC2)CC1)c1ccccc1` [Example 10, 1-[4-(4-Chlorobenzyl)-1-piperazinyl]-3-(4-phenacyl-1-piperazinyl)propane tetrahydrochloride monohydrate], in assay [3], the pIC50 was 5.52.

In the case of `OC(CN1CCN(CCCN2CCN(Cc3ccc(Cl)cc3)CC2)CC1)c1ccccc1` (stereo not shown) [Example 11, 1-[4-(4-Chlorobenzyl)-1-piperazinyl]-3-[4-(2-hydroxy-2-phenylethyl)-1-piperazinyl]propane tetrahydrochloride], the pIC50 in assay [3] was 4.70.

As for `O=C(CN1CCN(CCCN2CCN(CC(=O)c3ccccc3)CC2)CC1)c1ccccc1` [Example 12, 1,3-Bis(4-phenacyl-1-piperazinyl)propane tetrahydrochloride monohydrate], the pIC50 in assay [3] is 3.10.

For the compound `OC(CN1CCN(CCCN2CCN(CC(O)c3ccccc3)CC2)CC1)c1ccccc1` (stereo not shown) [Example 13, 1,3-Bis[4-(2-phenyl-2-hydroxyethyl)-1-piperazinyl]propane tetrahydrochloride], in assay [3], the pIC50 is ~3.00.

With `c1ccc(CCN2CCN(CCCN3CCN(CCc4ccccc4)CC3)CC2)cc1` [Example 14, 1,3-Bis(4-phenethyl-1-piperazinyl)propane dihydrochloride dihydrate], the pIC50 in assay [3] was 4.55.

For the compound `CC(c1ccccc1)N1CCN(CCCN2CCN(C(C)c3ccccc3)CC2)CC1` (stereo not shown) [Example 17, 1,3-Bis[4-(1-phenylethyl)-1-piperazinyl]-propane tetrahydrochloride], in assay [3], the negative logarithm of the IC50 (pIC50) was 4.10.

For `Clc1ccc(CN2CCN(CCCN3CCN(Cc4ccc(Cl)c(Cl)c4)CC3)CC2)cc1Cl` [Example 20, 1,3-Bis[4-(3,4-dichlorobenzyl)-1-piperazinyl]-propane tetrahydrochloride], the pIC50 in assay [3] is 5.52.

Turning to `Clc1ccccc1CN1CCN(CCCN2CCN(Cc3ccccc3Cl)CC2)CC1` [Example 21, 1,3-Bis[4-(2-chlorobenzyl)-1-piperazinyl]propane tetrahydrochloride], in assay [3], the pIC50 was 4.85.

In the case of `Cc1ccc(CN2CCN(CCCN3CCN(Cc4ccc(C)cc4)CC3)CC2)cc1` [Example 22, 1,3-Bis[4-(4-methylbenzyl)-1-piperazinyl]-propane tetrahydrochloride], in assay [3], the pIC50 was 4.70.

With `Clc1cccc(CN2CCN(CCCN3CCN(Cc4cccc(Cl)c4)CC3)CC2)c1` [Example 23, 1,3-Bis[4-(3-chlorobenzyl)-1-piperazinyl]propane dihydrochloride monohydrate], in assay [3], the pIC50 is 4.85.

Take `FC(F)(F)c1cc(CN2CCN(CCCN3CCN(Cc4ccc(Cl)c(C(F)(F)F)c4)CC3)CC2)ccc1Cl` [Example 25, 1,3-Bis[4-(4-chloro-3-trifluoromethylbenzyl)-1-piperazinyl]propane tetrahydrochloride]: in assay [3], the pIC50 is 5.22.

On to `Oc1ccc(CN2CCN(CCCN3CCN(Cc4ccc(O)cc4)CC3)CC2)cc1` [Example 26, 1,3-Bis[4-(4-hydroxybenzyl)-1-piperazinyl]propane], for which, in assay [3], the pIC50 was < 3.00.

Take `Brc1ccc(CN2CCN(CCCN3CCN(Cc4ccc(Br)cc4)CC3)CC2)cc1` [Example 27, 1,3-Bis[4-(4-bromobenzyl)-1-piperazinyl]propane tetrahydrochloride]: the pIC50 in assay [3] is 5.52.

Consider `Clc1ccc(CCCCN2CCN(CCCN3CCN(CCCCc4ccc(Cl)cc4)CC3)CC2)cc1` [Example 29, 1,3-Bis[4-(4-{4-chlorophenyl}butyl)-1-piperazinyl]propane tetrahydrochloride], for which the pIC50 in assay [3] was 5.70.

Turning to `CC(=O)Oc1ccc(CN2CCN(CCCN3CCN(Cc4ccc(OC(C)=O)cc4)CC3)CC2)cc1` [Example 30, 1,3-Bis[4-(4-acetoxybenzyl)-1-piperazinyl]propane], the pIC50 in assay [3] was < 3.00.

For `CCCCOc1ccc(CN2CCN(CCCN3CCN(Cc4ccc(OCCCC)cc4)CC3)CC2)cc1` [Example 31, 1,3-Bis[4-(4-butoxybenzyl)-1-piperazinyl]propane tetrahydrochloride], in assay [3], the pIC50 was 5.40.

Take `CC1C(C)N(Cc2ccc(Cl)cc2)C(C)C(C)N1CCCN1C(C)C(C)N(Cc2ccc(Cl)cc2)C(C)C1C` (stereo not shown) [Example 32, 1,3-bis[4-(4-chlorobenzyl)-2,3,5,6-tetramethyl-1-piperazinyl]propane tetrahydrochloride]: the pIC50 in assay [3] is 3.00.
